Data on one compound can be found in US20200008825A1, “SUSTAINED INTRATONSILLAR DRUG DELIVERY WITH NEEDLE ARRAY” (SOUTHERN RESEARCH INSTITUTE, priority 2017, published 2020).

This experiment concerns CD3 positive T-cells in rabbit tonsils. Briefly: percentage of CD3 positive T-cells in rabbit tonsils injected with mometasone versus control (FIG. 11). In kind it is in vivo. The source says:
FIG. 11 includes a graph illustrating a percentage of cluster-of-differentiation-3 (CD3) T-cell co-receptors in a rabbit when treated with mometasone versus a control. Referring now to FIG. 11, a graph is shown illustrating a percentage of cluster-of-differentiation-3 (CD3) T-cell co-receptors in a rabbit when treated with mometasone versus a control. In immunology, the CD3 T-cell co-receptor helps to activate both the cytotoxic T-Cell (CD8+ naive T cells) and also T helper cells (CD4+ naive T cells). CD3 consists of a protein complex and is composed of four distinct chains.

As for `C[C@@H]1C[C@H]2[C@@H]3CCC4=CC(=O)C=C[C@]4(C)[C@@]3(Cl)[C@@H](O)C[C@]2(C)[C@@]1(O)C(=O)CCl` [mometasone], the “CD3 positive T-cells (percentage)” value is on record as “significantly lower”.
